According to the NIST ThermoML archive (doi:10.1016/j.fluid.2008.02.013):
Where “and” joins values, the source holds several entries; their conditions need not be identical. Identical values can stand only once. Numbers after ± are expanded uncertainties.

Columns and labels:
[1] = Crystal; DTA
[2] = Molar enthalpy of transition or fusion; details: Crystal; DSC

Molar enthalpy of transition or fusion [2]: 52.1 kJ/mol and 53.6 kJ/mol and 55.2 kJ/mol
Compound: C=C(C)[C@@H]1CC[C@]2(CO)CC[C@]3(C)[C@H](CC[C@@H]4[C@@]5(C)CC[C@H](O)C(C)(C)[C@@H]5CC[C@]43C)[C@@H]12 [betulin]
Normal melting temperature [1]: 257.5 ± 2 °C and 255.0 ± 2 °C and 254.8 ± 2 °C
